According to US20210267992A1, “5-ACETAMIDOMETHYL-OXAZOLIDINONE DERIVATIVES FOR USE IN THE TREATMENT OF CANCER” (Varsity Pharmaceuticals Limited, priority 2018, published 2021):
“Also recorded” adds a separate entry of the source.

Columns and labels:
[1] = tested on: BRCA1 deficient ovarian cancer cells, UWB1.289; test: BrdU proliferation assay, single drugs after cisplatin; assay type: cell-based; settings: cisplatin 1 μM for 24 hours followed by the drug alone for 6 days, result in words
Experimental: (§1) Methods • Cell morphology, viability and proliferation rate was assessed by visual and counting method. • Day 0: Cells were split and around 1000 cells/well were seeded in normal complete media. • Day 1: Cisplatin was added at 1 μM to the test and controls wells. Untreated cells were left as control. • Day 2: medium containing cisplatin was discarded and new fresh media containing bromodeoxyuridine (BrdU) and the drugs at the concentrations shown in table 1, below, was added. • Day 6: medium was discarded, and cells fixed. BrdU assay was performed according to the manufacturer. • Controls comprised cells without BrdU (Blank), untreated cells (UN) and Cisplatin treated cells for 24 hours only (CIS). • All experiments were conducted in triplicate.
(§2) BrdU Proliferation Assay • After 6 days of incubation with drugs, the media was discarded, and cells were fixed for 30 minutes, at room temperature, with FixDenat Solution. • FixDenat Solution was then removed and substituted with Anti-BrdU-POD working solution for 2 hours at room temperature. • Plates were then washed 3 times with Washing buffer. • Substrate solution was added. • The reaction was stopped by adding H2SO4 and immediately read at 450 nm.
Data was analysed using Excel and Prism software. The average of the absorbances and the standard error were calculated using the technical triplicate for each condition.

UWB1.289 cell line = test: BrdU proliferation assay, combinations of PARPis and ATR inhibitors after cisplatin; assay type: cell-based; settings: for proliferation in combination with Aurothiomalate (ATM), compared with the gold complex alone: then Aurothiomalate (ATM) plus the labelled drug for 6 days; for proliferation in combination with auranofin, compared with the gold complex alone: then auranofin plus the labelled drug for 6 days
Experimental: as §1, §2
The methods were the same as described in example 1 except that the new fresh media added on day 2 contained bromodeoxyuridine (BrdU) and the drugs at the concentrations shown in table 2, below. All possible combinations of concentrations for compounds A and B were tested.

[2] = tested on: MDA-MB-436 (BRCA1 mutation) breast cancer cell xenograft; test: MDA-MB-436 (BRCA1 mutation) breast cancer cell xenograft experiment; assay type: in vivo; settings: mice, 100 mg/kg BID orally, MDA-MB-436 xenograft
Experimental: The MDA-MB-436 tumour cell line was maintained in vitro as monolayer culture in DMEM medium modified supplemented with 10% heat inactivated foetal bovine serum at 37° C. in an atmosphere of 5% CO2 in air. The tumour cells were routinely sub-cultured once a week by trypsin-EDTA treatment, not to exceed 4-5 passages. The cells growing in an exponential growth phase were harvested and counted for tumour inoculation.
All mice were inoculated subcutaneously on the right flank with MDA-MB-436 tumour cells (1×10^7) in 0.1 ml of DMEM with Matrigel mixture (1:1 ratio) for tumour development. The treatment started when the mean tumour size reached is approximately 100-150 mm^3. Mice were then be assigned to groups such that the mean tumour volume is the same for each treatment group. The treatments were administered to the tumour-bearing mice orally at 12 hour intervals.
560 mg linezolid was dissolved in 1.4 ml ethanol and 12.6 ml PEG400. The solution was vortexed and sonicated with high energy ultrasonic probe to get a uniform solution. The resultant solution was used for 1 day.
The measurement of tumour size was conducted twice weekly with a calliper and recorded. The tumour volume (mm3) was estimated using the formula: TV=a×b^2/2, where “a” and “b” are long and short diameters of a tumour, respectively.

[3] = UWB1.289, cisplatin 1 μM 24 hours, result in words

SMILES: OC[C@H]1O[C@H]([S-])[C@H](O)[C@@H](O)[C@@H]1O.[Au+] [ATG, Aurothioglucose]
- reduction of proliferation of the cancer cells (BrdU absorbance) [1]: effectively reduce proliferation

SMILES: O=C(c1cc(Cc2n[nH]c(=O)c3ccccc23)ccc1F)N1CCN(C(=O)C2CC2)CC1 [Olaparib]
- reduction of proliferation of the cancer cells (BrdU absorbance) [1]: effectively reduce proliferation

SMILES: CNCc1ccc(-c2[nH]c3cc(F)cc4c3c2CCNC4=O)cc1 [rucaparib]
- reduction of proliferation of the cancer cells (BrdU absorbance) [1]: effectively reduce proliferation

SMILES: CC(=O)NC[C@H]1CN(c2ccc(N3CCOCC3)c(F)c2)C(=O)O1 [linezolid]
- proliferation in combination with Aurothiomalate (ATM), compared with the gold complex alone (UWB1.289 cell line; [3]): particularly marked improvement over the gold complexes when used alone; also recorded: particularly noticeable synergistic effect
- proliferation in combination with auranofin, compared with the gold complex alone (UWB1.289 cell line; [3]): particularly marked improvement over the gold complexes when used alone
- synergistic effect on proliferation when used with a PARPi (UWB1.289 cell line; UWB1.289, combination with a PARPi, result in words): synergistic effect
- percentage proliferation (UWB1.289 cell line; UWB1.289, linezolid 100 nM together with Aurothiomalate (ATM) 30 nM, after cisplatin 1 μM 24 hours): 2%
- proliferation reduction compared with AZD6738 (UWB1.289 cell line; inventors' conclusion, result in words): equivalent to proliferation reduction achieved by AZD6738
- reduction of proliferation of the cancer cells (BrdU absorbance) [1]: reduce proliferation of cancer cells when used alone
- reduced tumour size compared to the control group [2]: 38%

SMILES: C[C@@H]1COCCN1c1cc(C2([S@](C)(=N)=O)CC2)nc(-c2cc[nH]c3nccc2-3)n1 [AZD, AZD6738]
- proliferation in combination with Aurothiomalate (ATM), compared with the gold complex alone (UWB1.289 cell line; [3]): particularly marked improvement over the gold complexes when used alone
- proliferation in combination with auranofin, compared with the gold complex alone (UWB1.289 cell line; [3]): particularly marked improvement over the gold complexes when used alone
- proliferation in combination with olaparib, compared with olaparib alone (UWB1.289 cell line; UWB1.289, cisplatin 1 μM 24 hours, then olaparib plus the labelled drug for 6 days, result in words): further decreased proliferation when compared to the degree of proliferation observed for olaparib alone

SMILES: CC(=O)OC[C@H]1O[C@@H]([S-])[C@H](OC(C)=O)[C@@H](OC(C)=O)[C@@H]1OC(C)=O.CCP(CC)CC.[Au+] [auranofin]
- reduction of proliferation of the cancer cells (BrdU absorbance) [1]: effectively reduce proliferation

SMILES: O=C(O)CC([S-])C(=O)O.[Au+] (stereo not shown) [ATM, Aurothiomalate]
- reduction of proliferation of the cancer cells (BrdU absorbance) [1]: effectively reduce proliferation

SMILES: NC(=O)c1cccc2cn(-c3ccc([C@@H]4CCCNC4)cc3)nc12 [niraparib]
- reduction of proliferation of the cancer cells (BrdU absorbance) [1]: effectively reduce proliferation
